Laboratory results reported in patent publication US7709223B2, “Method for detecting bacteria with chromogenic substrates for β-D-ribofuranosidase” (priority 2001, dated 2010).
Where a name gives a salt, the structure may show the parent alone.

Legend:
Assay in all cases: Hydrolysis on Columbia agar with ferric ammonium citrate
Assay type in all cases: cell-based
[1] = system: Staphylococcus epidermidis
Method: (§1) The chromogenic β-D-ribofuranoside substrate was added to Columbia agar at a substrate concentration of 300 mg/l. Ferric ammonium citrate was included at 500 mg/l. All ingredients were autoclaved at 116° C. for 20 minutes to ensure sterilisation. Agar plates were then prepared in 90 mm petri dishes. The substrate caused a yellow colouration of the agar.
(§2) For each strain tested, a bacterial suspension was prepared in sterile deionised water at an inoculum of approximately 1.5×10^8 colony forming units per ml. This was achieved using a densitometer. 1 μl of each bacterial suspension was then inoculated onto each plate using a multipoint inoculator. Strains were inoculated in parallel onto Columbia agar containing ferric ammonium citrate with no substrate (negative control).
(§3) After 18 hours incubation, strains were examined visually for the presence of colour. Any strains producing a black colouration on substrate containing media but not on the negative control plates were deemed to be hydrolysing the substrate.

[2] = system: Enterococcus raffinosis; conditions: Enterococcus raffinosis NCTC 13192
Method: as §1, §2, §3

[3] = system: Streptococcus sanguis; conditions: Streptococcus sanguis NCTC 7863
Method: as §1, §2, §3

[4] = system: Enterococcus faecalis
Method: as §1, §2, §3

[5] = system: Haemolytic streptococcus G
Method: as §1, §2, §3

[6] = system: P. mirabilis
Method: as §1, §2, §3

[7] = system: Streptococci
Method: as §1, §2, §3

[8] = system: Bacillus licusniforms; conditions: Bacillus licusniforms NCIMB 9375
Method: as §1, §2, §3

[9] = system: Streptococcus crista; conditions: Streptococcus crista NCTC 12479
Method: as §1, §2, §3

[10] = system: Listeria innocua; conditions: Listeria innocua PHLS wild
Method: as §1, §2, §3

[11] = system: A. baumanii; conditions: A. baumanii ATCC 19606
Method: as §1, §2, §3

[12] = system: Enterococcus casseflavus; conditions: Enterococcus casseflavus NCTC 12361
Method: as §1, §2, §3

[13] = system: Streptococcus constellatus; conditions: Streptococcus constellatus NCTC 11325
Method: as §1, §2, §3

[14] = system: Streptococcus pneumoniae; conditions: Streptococcus pneumoniae NCTC 7465
Method: as §1, §2, §3

[15] = system: Vibrio furnissii; conditions: Vibrio furnissii NCTC 11218
Method: as §1, §2, §3

[16] = system: P. rettgeri; conditions: P. rettgeri NCTC 7475
Method: as §1, §2, §3

[17] = system: Streptococcus mitis; conditions: Streptococcus mitis NCTC 12261
Method: as §1, §2, §3

[18] = system: Enterococcus gallinarum; conditions: Enterococcus gallinarum NCTC 11428
Method: as §1, §2, §3

[19] = system: Listeria ivanovii; conditions: Listeria ivanovii PHLS wild
Method: as §1, §2, §3

[20] = system: A. calcoaceticus; conditions: A. calcoaceticus ATCC 7844
Method: as §1, §2, §3

[21] = system: M. morganii
Method: as §1, §2, §3

[22] = system: Providencia alcalifaciens
Method: as §1, §2, §3

[23] = system: A. lwoffii; conditions: A. lwoffii ATCC 15309
Method: as §1, §2, §3

[24] = system: Providencia stuartii
Method: as §1, §2, §3

[25] = system: Vibrio hollisae; conditions: Vibrio hollisae NCTC 11640
Method: as §1, §2, §3

[26] = system: Vibrio mimicus; conditions: Vibrio mimicus NCTC 11435
Method: as §1, §2, §3

[27] = system: Vibrio cholerae
Method: as §1, §2, §3

[28] = system: Haemolytic streptococcus B
Method: as §1, §2, §3

[29] = system: Vibrio parahaemolyticus
Method: as §1, §2, §3

[30] = system: Staphylococcus haemolyticus
Method: as §1, §2, §3

[31] = system: Haemolytic streptococcus C
Method: as §1, §2, §3

[32] = system: staphylococci; conditions: all of the staphylococci
Method: as §1, §2, §3

[33] = system: Vibrio cincinnatiensis; conditions: Vibrio cincinnatiensis NCTC 12012
Method: as §1, §2, §3

O=c1cc(-c2ccc(OC3OC(CO)C(O)C3O)c(O)c2)oc2ccccc12 [DHF-riboside, 3′,4′-Dihydroxyflavone-4′-β-D-ribofuranoside sodium salt]
β-Ribofuranoside (hydrolysis) ([1]; Staphylococcus epidermidis RB60): ++
β-Ribofuranoside (hydrolysis) ([1]; Staphylococcus epidermidis RB62): +
β-Ribofuranoside (hydrolysis) ([1]; Staphylococcus epidermidis RB63): +
β-Ribofuranoside (hydrolysis) ([1]; Staphylococcus epidermidis RB64): +
β-Ribofuranoside (hydrolysis) ([1]; Staphylococcus epidermidis RB65): +
β-Ribofuranoside (hydrolysis) [2]: +
β-Ribofuranoside (hydrolysis) [3]: −
β-Ribofuranoside (hydrolysis) ([4]; Reference No. 1): −
β-Ribofuranoside (hydrolysis) ([4]; Reference No. 2): +
β-Ribofuranoside (hydrolysis) ([4]; Reference No. 3): +
β-Ribofuranoside (hydrolysis) ([4]; Reference No. 4): +
β-Ribofuranoside (hydrolysis) ([4]; Reference No. 5): +
β-Ribofuranoside (hydrolysis) ([4]; Reference No. 6): +
β-Ribofuranoside (hydrolysis) ([4]; Reference No. 7): −
β-Ribofuranoside (hydrolysis) ([5]; Reference No. 1): −
β-Ribofuranoside (hydrolysis) ([5]; Reference No. 2): −
β-Ribofuranoside (hydrolysis) ([5]; Reference No. 3): +
β-Riboside (hydrolysis) ([6]; P. mirabilis NCTC 10975): −
β-Riboside (hydrolysis) ([6]; P. mirabilis PMI 1): −
β-Riboside (hydrolysis) ([6]; P. mirabilis PMI 2): −
Activity with the substrate [7]: almost universally negative
β-Ribofuranoside (hydrolysis) [8]: −
β-Ribofuranoside (hydrolysis) [9]: −
β-Ribofuranoside (hydrolysis) [10]: −
β-Riboside (hydrolysis) [11]: −
β-Ribofuranoside (hydrolysis) [12]: −
β-Ribofuranoside (hydrolysis) [13]: −
β-Ribofuranoside (hydrolysis) [14]: −
β-Riboside (hydrolysis) [15]: −
β-Riboside (hydrolysis) [16]: +
β-Ribofuranoside (hydrolysis) [17]: −
β-Ribofuranoside (hydrolysis) [18]: +
β-Ribofuranoside (hydrolysis) [19]: +
β-Riboside (hydrolysis) [20]: −
β-Riboside (hydrolysis) ([21]; M. morganii MMO 1): +
β-Riboside (hydrolysis) ([21]; M. morganii MMO 2): +
β-Riboside (hydrolysis) ([21]; M. morganii NCTC 235): −
β-Riboside (hydrolysis) ([22]; Providencia alcalifaciens PAL 1): +
β-Riboside (hydrolysis) ([22]; Providencia alcalifaciens PAL 2): −
β-Riboside (hydrolysis) [23]: −
β-Riboside (hydrolysis) ([24]; Providencia stuartii PST 1): +
β-Riboside (hydrolysis) ([24]; Providencia stuartii PST 2): +
β-Riboside (hydrolysis) [25]: −
β-Riboside (hydrolysis) [26]: −
β-Riboside (hydrolysis) ([27]; Vibrio cholera NCTC 6585): −
β-Riboside (hydrolysis) ([27]; Vibrio cholera NCTC 7270): −
β-Riboside (hydrolysis) ([27]; Vibrio cholera NCTC 8021): −
β-Riboside (hydrolysis) ([27]; Vibrio cholera NCTC 10732): −
β-Riboside (hydrolysis) ([27]; Vibrio cholera NCTC 12945): −
β-Riboside (hydrolysis) ([27]; Vibrio cholerae NCTC 7254): −
β-Riboside (hydrolysis) ([27]; Vibrio cholerae NCTC 8042): −
β-Riboside (hydrolysis) ([27]; Vibrio cholerae NCTC 10255): −
β-Riboside (hydrolysis) ([27]; Vibrio cholerae NCTC 10954): −
β-Ribofuranoside (hydrolysis) ([28]; Reference No. 1): −
β-Ribofuranoside (hydrolysis) ([28]; Reference No. 2): −
β-Ribofuranoside (hydrolysis) ([28]; Reference No. 3): −
β-Riboside (hydrolysis) ([29]; Vibrio parahaemolyticus NCTC 10441): −
β-Riboside (hydrolysis) ([29]; Vibrio parahaemolyticus NCTC 10884): −
β-Riboside (hydrolysis) ([29]; Vibrio parahaemolyticus NCTC 10903): −
β-Riboside (hydrolysis) ([29]; Vibrio parahaemolyticus NCTC 11344): −
β-Riboside (hydrolysis) ([29]; Vibrio parahaemolyticus NCTC 12205): −
β-Ribofuranoside (hydrolysis) ([30]; Staphylococcus haemolyticus RB 66): +
β-Ribofuranoside (hydrolysis) ([30]; Staphylococcus haemolyticus RB 67): +
β-Ribofuranoside (hydrolysis) ([30]; Staphylococcus haemolyticus RB 68): +
β-Ribofuranoside (hydrolysis) ([30]; Staphylococcus haemolyticus RB 69): +
β-Ribofuranoside (hydrolysis) ([30]; Staphylococcus haemolyticus RB 70): +
β-Ribofuranoside (hydrolysis) ([31]; Reference No. 1): −
β-Ribofuranoside (hydrolysis) ([31]; Reference No. 67736): −
β-Ribofuranoside (hydrolysis) ([31]; Reference No. 68350): −
Activity with the substrate [32]: positive
β-Riboside (hydrolysis) [33]: −
